This assay has as its system HCT116 MTAP-deleted cell lines. Briefly: Cell viability assay (CellTiter-Glo, 7 days), HCT116 MTAP-deleted. Format: cell-based. Conditions: Homo sapiens, HCT-116; cell viability assay, HCT116 MTAP-deleted; class symbols; read-out: CC50. The method, boiled down:
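First, compounds are serially diluted in DMSO and dispensed into plates, which are frozen until seeding. Next, cells are added and incubated 7 days at 37 °C, 5% CO2, 90% humidity. Finally, CellTiter-Glo reagent is added and luminescence is measured to derive CC50.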
In general, CC50 refers to the concentration giving 50% cytotoxicity. Regarding `CO[C@@H]1Cc2cc(-c3cnn(C(F)F)c3)ccc2[C@@H]1N(C)C(=O)c1cc2c(cc1F)nc(N)c1cncn12` [Ff-580, 4-amino-N-((1S,2R)-5-(1-(difluoromethyl)-1H-pyrazol-4-yl)-2-methoxy-2,3-dihydro-1H-inden-1-yl)-7-fluoro-N-methylimidazo[1,5-a]quinoxaline-8-carboxamide], the cytotoxic concentration (CC50) fell in the range of 100 to 1000 nM.
The result for `CO[C@@H]1Cc2cc(C(F)(F)F)ccc2[C@@H]1N(C)C(=O)c1cc2c(cc1F)nc(N)c1cncn12` [Ff-581, 4-amino-7-fluoro-N-((1S,2R)-2-methoxy-5-(trifluoromethyl)-2,3-dihydro-1H-inden-1-yl)-N-methylimidazo[1,5-a]quinoxaline-8-carboxamide] reads 100 to 1000 nM.
As for `CN(C(=O)c1cc2c(cc1F)nc(N)c1cncn12)[C@H]1c2ccc(Br)cc2C[C@H]1OC(F)F` [Ff-582, 4-amino-N-((1S,2R)-5-bromo-2-(difluoromethoxy)-2,3-dihydro-1H-inden-1-yl)-7-fluoro-N-methylimidazo[1,5-a]quinoxaline-8-carboxamide], the CC50 was 100 to 1000 nM.
The value for `CN(C(=O)c1cc2c(cc1F)nc(N)c1cncn12)[C@H]1c2ccc(-c3cnn(C(F)F)c3)cc2C[C@H]1OC(F)F` [Ff-583, 4-amino-N-((1S,2R)-2-(difluoromethoxy)-5-(1-(difluoromethyl)-1H-pyrazol-4-yl)-2,3-dihydro-1H-inden-1-yl)-7-fluoro-N-methylimidazo[1,5-a]quinoxaline-8-carboxamide] was 100 to 1000 nM; that for `CN(C(=O)c1cc2c(cc1F)nc(N)c1cncn12)[C@@H]1COc2cc(OC(F)F)c(F)cc21` [Ff-584] was less than 100 nM.
On to `CN(C(=O)c1cc2c(cc1F)nc(N)c1cncn12)[C@@H]1COc2cc(OC(F)F)cc(F)c21` [Ff-585], for which the CC50 is less than 100 nM.
The value for `Nc1nc2ccc(C(=O)N3CCC[C@@H]4Oc5cc(C(F)(F)F)ccc5[C@@H]43)cc2n2cnc(F)c12` [Ff-588, (4-amino-3-fluoroimidazo[1,5-a]quinoxalin-8-yl)((4aS,9bS)-7-(trifluoromethyl)-3,4,4a,9b-tetrahydrobenzofuro[3,2-b]pyridin-1(2H)-yl)methanone] was less than 100 nM; that for `Cc1ncc2c(N)nc3cc(F)c(C(=O)N(Cc4ccc(C(F)(F)F)cn4)C4(C)CC4)cc3n12` [Ff-589, 4-amino-7-fluoro-1-methyl-N-(1-methylcyclopropyl)-N-((5-(trifluoromethyl)pyridin-2-yl)methyl)imidazo[1,5-a]quinoxaline-8-carboxamide] was less than 100 nM.
Turning to `Cc1ncn2c1c(N)nc1cc(F)c(C(=O)N(Cc3ccc(C(F)(F)F)cn3)C3(C)CC3)cc12` [Ff-590, 4-amino-7-fluoro-3-methyl-N-(1-methylcyclopropyl)-N-((5-(trifluoromethyl)pyridin-2-yl)methyl)imidazo[1,5-a]quinoxaline-8-carboxamide], the CC50 was less than 100 nM.
The result for `CC(C)N(Cc1ccc(-c2ccc(OC(F)F)cc2)cc1F)C(=O)c1cc2c(cc1F)nc(N)c1cncn12` [Ff-591, 4-amino-N-((4′-(difluoromethoxy)-3-fluoro-[1,1′-biphenyl]-4-yl)methyl)-7-fluoro-N-isopropylimidazo[1,5-a]quinoxaline-8-carboxamide] reads less than 100 nM; that for `CC(C)N(Cc1ccc(-c2cccc(OC(F)F)c2)cc1F)C(=O)c1cc2c(cc1F)nc(N)c1cncn12` [Ff-592, 4-amino-N-((3′-(difluoromethoxy)-3-fluoro-[1,1′-biphenyl]-4-yl)methyl)-7-fluoro-N-isopropylimidazo[1,5-a]quinoxaline-8-carboxamide], less than 100 nM; that for `CC(C)N(Cc1ccc(-c2cnn(-c3ccccc3)c2)cc1F)C(=O)c1cc2c(cc1F)nc(N)c1cncn12` [Ff-593, 4-amino-7-fluoro-N-(2-fluoro-4-(1-phenyl-1H-pyrazol-4-yl)benzyl)-N-isopropylimidazo[1,5-a]quinoxaline-8-carboxamide], less than 100 nM.
As to `CC(C)N(Cc1ccc(-c2ccc[nH]c2=O)cc1F)C(=O)c1cc2c(cc1F)nc(N)c1cncn12` [Ff-594, 4-amino-7-fluoro-N-(2-fluoro-4-(2-oxo-1,2-dihydropyridin-3-yl)benzyl)-N-isopropylimidazo[1,5-a]quinoxaline-8-carboxamide], the CC50 is 100 to 1000 nM.
`Nc1nc2cc(F)c(C(=O)N3CC[C@H]4C[C@@H]3c3ccc(Cl)nc34)cc2n2cncc12` [Ff-595, (4-amino-7-fluoroimidazo[1,5-a]quinoxalin-8-yl)((5R,9S)-2-chloro-5,7,8,9-tetrahydro-6H-5,9-methanopyrido[3,2-c]azepin-6-yl)methanone]: the CC50 was 100 to 1000 nM.
As to `CN(Cc1ccc(Br)c(C(F)F)c1)C(=O)c1cc2c(cc1F)nc(N)c1cncn12` [Ff-596, 4-amino-N-(4-bromo-3-(difluoromethyl)benzyl)-7-fluoro-N-methylimidazo[1,5-a]quinoxaline-8-carboxamide], the CC50 fell in the range of 100 to 1000 nM.
For the compound `Nc1nc2cc(Cl)c(C(=O)N3CC[C@H]4C[C@@H]3c3ccc(OC(F)F)cc34)cc2n2cncc12` [Ff-598, (4-amino-7-chloroimidazo[1,5-a]quinoxalin-8-yl)((1R,5S)-7-(difluoromethoxy)-1,3,4,5-tetrahydro-2H-1,5-methanobenzo[c]azepin-2-yl)methanone], the CC50 is less than 100 nM.
Regarding `Nc1nc2cc(Cl)c(C(=O)N3CC[C@H]4C[C@@H]3c3ccc(Cl)cc34)cc2n2cncc12` [Ff-599, (4-amino-7-chloroimidazo[1,5-a]quinoxalin-8-yl)((1R,5S)-7-chloro-1,3,4,5-tetrahydro-2H-1,5-methanobenzo[c]azepin-2-yl)methanone], the CC50 is less than 100 nM.
With `CN(C(=O)c1cc2c(cc1F)nc(N)c1cncn12)C1COc2cc3ccccc3cc21` (stereo not shown) [Ff-600, 4-amino-N-(2,3-dihydronaphtho[2,3-b]furan-3-yl)-7-fluoro-N-methylimidazo[1,5-a]quinoxaline-8-carboxamide], the CC50 was less than 100 nM.
Turning to `Nc1nc2cnc(C(=O)N3CC[C@H]4C[C@@H]3c3ccc(Cl)nc34)cc2n2cncc12` [Ff-602, (4-aminoimidazo[1,5-a]pyrido[3,4-e]pyrazin-8-yl)((5R,9S)-2-chloro-5,7,8,9-tetrahydro-6H-5,9-methanopyrido[3,2-c]azepin-6-yl)methanone], the CC50 fell in the range of 100 to 1000 nM.
Take `Nc1nc2cc(F)c(C(=O)N3CC[C@H]4C[C@@H]3c3ccc(Cl)cc34)cc2n2cncc12` [Ff-603, (4-amino-7-fluoroimidazo[1,5-a]quinoxalin-8-yl)((1R,5S)-7-chloro-1,3,4,5-tetrahydro-2H-1,5-methanobenzo[c]azepin-2-yl)methanone]: the CC50 lay in the range of 100 to 1000 nM.
The value for `CCN(C(=O)c1cc2c(cn1)nc(N)c1cncn12)[C@@H]1COc2cc(C(F)(F)F)ccc21` [Ff-604, (S)-4-amino-N-ethyl-N-(6-(trifluoromethyl)-2,3-dihydrobenzofuran-3-yl)imidazo[1,5-a]pyrido[3,4-e]pyrazine-8-carboxamide] was less than 100 nM; that for `CN(C(=O)c1cc2c(cc1F)nc(N)c1cncn12)C1COc2cc(Cl)c(Br)cc21` (stereo not shown) [Ff-608, 4-amino-N-(5-bromo-6-chloro-2,3-dihydrobenzofuran-3-yl)-7-fluoro-N-methylimidazo[1,5-a]quinoxaline-8-carboxamide] was less than 100 nM.

These data come from patent US12448388B2, “PRMT5 inhibitors and uses thereof” (Gilead Sciences, Inc., priority 2023, dated 2025).
